From patent publication US9044491B2, “Method for improving blood flow using stilbenoid derivatives” (The Board of Trustees of the University of Arkansas, priority 2010, dated 2015) come the findings set out here.

Type in all cases: in vivo, mouse
Assay [1] concerns cecal ligation and puncture model (CLP) of sepsis-induced renal injury. Put plainly: Renal microcirculation after CLP by intravital video microscopy. Particulars: for capillary perfusion / RBC velocity / volumetric blood flow: 18 hours after CLP. As to the method:
Control (sham) mice underwent surgery but not CLP. Fresh solutions of tRes were prepared in dimethyl sulfoxide as the vehicle (veh) and diluted in normal saline before use. Dextran and […] were administered to the penile vein to visualize the capillary vascular space and detect RNS generation, respectively. The left kidney was exposed by a flank incision and positioned on a glass stage with a fluorescent microscope equipped with an Axiocam HSm camera. Intravital Video Microscopy (IVVM) of 10 s intervals at 200× magnification were acquired from randomly selected, non-overlapping fields of view. Capillaries were randomly selected for the 10 sec videos and categorized as “continuous flow” where red blood cell (RBC) movement was continuous; “intermittent flow” where RBC movement stopped or reversed; or “no flow” where no RBC movement was detected as shown in FIG. 8. RBC velocity was calculated in continuously flowing capillaries by measuring the distance traveled by a single RBC over time, expressed in μm/s.

Assay [2] relates to CLP mice. Briefly: Systemic serum nitric oxide levels after CLP. Particulars: CLP mice at 18 hours, two doses. As for the experimental part:
Serum nitrate and […] were determined using the Total Nitric Oxide Assay Kit (Assay Designs, Ann Arbor, Mich.) as directed by the manufacturer. Data were expressed as serum nitrate+nitrate concentration in […].

Assay [3] has as its system CLP mice. Put plainly: Serum creatinine and blood urea nitrogen after CLP. As for the experimental part:
Acute Kidney Injury (AKI) is accompanied by elevated blood urea nitrogen levels, elevated creatinine levels, and low blood pressure. Serum creatinine and blood urea nitrogen (BUN) were measured using the QuantiChrom® Creatinine Assay kit and Urea Assay Kit (BioAssay Systems, Hayward Calif.).

Setting [4] is: at 6 hours after CLP, administration at 5.5 hours.
Where [5] appears, read: 10 mg/kg administered 6 hours after CLP surgery, single dose.

Consider `Oc1ccc(/C=C/c2cc(O)cc(O)c2)cc1` [tRes, trans-resveratrol], for which, in assay [1] (10 mg/kg at 6 hours and second dose at 12 hours), the capillary perfusion entry is “prevented the change”. In assay [1] (additional dose at 12 hours), the RBC velocity entry is recorded as “complete restoration” and the volumetric blood flow result is on record as “complete restoration”. Further, in assay [1] (single dose), the RBC velocity result is “did not improve” and the volumetric blood flow entry is on record as “did not improve”. For the same compound, in assay [1] (single dose 10 mg/kg at 6 hours), the capillary perfusion result was “unable to maintain perfusion”. Further, in assay [1] (at 6 h after CLP), the “mean RBC velocity” value is listed as “improved” and the “renal capillary volumetric blood flow” value is listed as “improved”. Besides, in assay [1] (setting [4]), the “most efficacious dose for capillary perfusion” value was determined as 10 mg/kg and the “renal cortical peritubular capillary perfusion” value was “improved perfusion in a dose dependent manner”. The “serum nitrate+nitrate concentration” value in the assay on CLP mice [2] was “did not affect”. In the assay on CLP mice [3] (setting [5]), the BUN levels result is “not” and the serum creatinine levels result is “significantly reduced”. Further, in the assay on CLP mice [3] (additional dose given at 12 h), the BUN levels result is reported as “significant reduction” and the serum creatinine levels entry is “significant reduction”.
